Literature values, collected in PMC7306898, “Concentration-Dependent Activity of Hydromethylthionine on Clinical Decline and Brain Atrophy in a Randomized Controlled Trial in Behavioral Variant Frontotemporal Dementia” (Journal of Alzheimer's Disease, 2020).
Where two headings read alike, the source gives them in different places.

How the values were obtained:
[1] = cited from earlier work; for Plasma Half-life, Mean: value in parentheses ref U.S. approved product labeling
[2] = test system: subjects with mild or moderate AD; conditions: cited from earlier work
male rats = test system: male rats; parameters: method as in U.S. National Toxicology Program; conditions: pancreatic islet cell adenoma and adenoma or carcinoma ref U.S. National Toxicology Program; cited from earlier work
mice = test system: mice; parameters: method as in U.S. National Toxicology Program; conditions: cited from earlier work
[3] = test system: subjects with a clinical diagnosis within the FTLD spectrum; parameters: method as in Investigator's Brochure; conditions: MTC 138 mg/day MT, cited from earlier work
subjects with AD = test system: subjects with AD; parameters: method as in TRx-014-001; conditions: cited from earlier work
TDP-43 = test system: TDP-43; parameters: method as in PMID 19560462; conditions: cell models ref 34; read-out: EC50, inhibition of aggregation of TDP-43; cited from earlier work
mitochondrial activity = test system: mitochondrial activity; parameters: method as in PMID 22419586, PMID 17928358; conditions: cited from earlier work
serotonin transporter = test system: serotonin transporter; parameters: method as in PMID 21542830; conditions: in vitro ref 73; cited from earlier work
[4] = parameters: method as in Investigator's Brochure; conditions: coadministration of reduced leuco (LMT) form with food ref Investigator's Brochure; cited from earlier work
[5] = ref U.S. approved product labeling
[6] = Biphasic ref U.S. approved product labeling
[7] = single dose ref U.S. approved product labeling

Structure (SMILES) | Plasma Half-life, range or single value [1, 5] [h] | also measured
CNCCC(Oc1ccc(C(F)(F)F)cc1)c1ccccc1 (centres unmarked) [Fluoxetine] |  | Plasma Half-life ([1]; Acute ref U.S. approved product labeling): 24 to 72 h; Plasma Half-life ([1]; Chronic ref U.S. approved product labeling): 96 to 140 h
CN(C)CCC[C@@]1(c2ccc(F)cc2)OCc2cc(C#N)ccc21 [Escitalopram] | 27 to 32 | increase in half-life reported in elderly [1, 5]: 50%
CCc1nn(CCCN2CCN(c3cccc(Cl)c3)CC2)c(=O)n1CCOc1ccccc1 [Nefazodone] | 2 to 4 | 
CNCCC=C1c2ccccc2CCc2ccccc21 [Nortriptyline] | 16 to 93 | 
CNCCCC1c2ccccc2C=Cc2ccccc21 [P rotriptyline, Protriptyline] | 55 to 198 | 
CN(C)[C@@H](CCOc1cccc2ccccc12)c1ccccc1 [Dapoxetene] |  | Plasma Half-life, initial [1, 6]: 1.5 h; Plasma Half-life, terminal [1, 6]: 20 h
N[C@H]1CC[C@@H](c2ccc(Cl)c(Cl)c2)c2ccccc21 [N-desmethyls ertraline, N-desmethylsertraline] | 62 to 104 | 
CN(C)c1ccc2nc3ccc(=[N+](C)C)cc-3sc2c1 [MTC, methylthioninium chloride] |  | clinically effective dose available ([2]; 100 mg MTC capsules twice or three times daily, nominal doses 152-228 mg/day ref Baddeley et al., 2015, Wischik et al.): 72 to 109 mg/day; minimum effective dose in AD ([2]; placebo-controlled dose-finding Phase II trial ref 47): 138 mg/day; carcinogenic activity (male rats): som e evi dence of carcino genic; carcinogenic activity (mice; female mice, malignant lymphoma ref U.S. National Toxicology Program): equi vocal eviden ce of; carcinogenic activity (mice; male mice, carcinoma and adenoma or carcinoma in the small intestine ref U.S. National Toxicology Program): some evidenc e of car cinogeni c activit y; MMSE scores, mean above Baseline ([3]; 12 months ref Investigator's Brochure): 1.6 units; ACE-R scores improved by a mean (mean ± SEM) ([3]; 12 months, 7 subjects, LOCF ref Investigator's Brochure): 4.5 ± 2.4 units; methemoglobin, highest value observed (subjects with AD; Phase 2 study ref TRx-014-001): 8%; Diarrhea and related adverse events (subjects with AD; highest dose, 228 mg MT/day ref TRx-014-001): 48%; discontinuation due to urinary adverse events (subjects with AD; including urinary discoloration and staining ref TRx-014-001): 6%; discontinuation due to diarrhea and related adverse events, overall (subjects with AD; ref TRx-014-001): 16%; mean methemoglobin levels (subjects with AD; ref TRx-014-001): below 3.5%; subjects discontinued due to vomiting (subjects with AD; ref TRx-014-001): 3%; methemoglobin, mean overall (subjects with AD; those treated with MTC ref TRx-014-001): 0.8%
CN(C)CC(c1ccc(O)cc1)C1(O)CCCCC1 (centres unmarked) [O-desmeth ylvenlafaxine, O-desmethylvenlafaxine] | 9 to 13 | 
C#CCN(C)[C@H](C)Cc1ccccc1 [Selegiline] | 10 | 
O=C1CC2(CCCC2)CC(=O)N1CCCCN1CCN(c2ncccn2)CC1 [Buspirone] |  | Plasma Half-life [1, 7]: 2 to 3 h
C#CCNC(C)Cc1ccccc1 (stereo not drawn) [R(-)-N -desmeth ylselegiline, R(-)-N-desmethylselegiline] | 18 to 25 | 
C[C@H]1NC(C)(C)CO[C@]1(O)c1cccc(Cl)c1 [Hydroxybupropion] | 15 to 25 | Plasma Half-life, Mean [1]: 20 h
CC(NC(C)(C)C)C(O)c1cccc(Cl)c1 (centres unmarked) [Erythrohydrobupropion] | 23 to 43 | Plasma Half-life, Mean [1]: 33 h
O=C(NCCN1CCOCC1)c1ccc(Cl)cc1 [Moclobemide] | 1 to 2 | 
COCCCC/C(=N\OCCN)c1ccc(C(F)(F)F)cc1 [Fluvoxamine] | 15.6 | 
CN(C)CCC=C1c2ccccc2CCc2ccccc21 [Amitriptyline] | 9 to 25 | 
CNCCC=C1c2ccccc2COc2ccccc21 [Nordoxepin] | 31 | 
CN(C)CCC=C1c2ccccc2COc2ccccc21 [Doxepin] | 15.3 | 
CCN(CC)C(=O)[C@@]1(c2ccccc2)C[C@H]1CN [l-enatiomer] | 4 to 6 | 
CN(C)c1ccc2nc3ccc(=[N+](C)C)cc-3sc2c1 [MT, methylthioninium] |  | EC50 (TDP-43): 50 nM; concentrations at which mitochondrial activity is enhanced (mitochondrial activity): 10 to 100 nM; IC50 (serotonin transporter): 1200 nM
CN(C)c1ccc2c(c1)Sc1cc(N(C)C)ccc1N2 [LMT, leuco-methylthioninium] |  | lowering of peak concentrations with food [4]: 8%
CN[C@H]1CC[C@@H](c2ccc(Cl)c(Cl)c2)c2ccccc21 [Sertraline] | 26 | 

Structure (SMILES) | Plasma Half-life, range or single value [1, 5] [h] | also measured
CNCCCN1c2ccccc2CCc2ccc(Cl)cc21 [Desmeth ylclo mipramine, Desmethylclomipramine] | 54 to 77 | Plasma Half-life, Mean [1]: 69 h
CNCCC=C1c2ccccc2COc2ccccc21 [Des meth yldoxepin, Desmethyldoxepin] | 28 to 52 | 
CCN(CC)C(=O)C1(c2ccccc2)CC1CN (centres unmarked) [Milnacipran] | 6 to 8 | 
Clc1ccc2c(c1)C(N1CCNCC1)=Nc1ccccc1O2 [Amo xapine, Amoxapine] | 8 | 
CCN(CC)C(=O)[C@]1(c2ccccc2)C[C@@H]1CN [d-milnacipran] | 8 to 10 | 
CC(NC(C)(C)C)C(=O)c1cccc(Cl)c1 (centres unmarked) [Bupropion] | 12 to 30 | Plasma Half-life, Mean [1]: 21 h
Oc1ccc2c(c1)N=C(N1CCNCC1)c1cc(Cl)ccc1O2 [8-hydroxyamoxapine] | 30 | 
NNCCc1ccccc1 [Phenelzine] |  | Plasma Half-life [1, 7]: 11.6 h
CN(C)CCCC1(c2ccc(F)cc2)OCc2cc(C#N)ccc21 (centres unmarked) [Citalopram] | 35 | increase in half-life reported in elderly [1, 5]: 30-50%
CN(C)CC/C=C1\c2ccccc2CSc2ccccc21 [Dosulepin] | 19 to 33 | Plasma Half-life for “its metabolites” [1, 5]: 23 to 46 h
COc1ccc(C(CN(C)C)C2(O)CCCCC2)cc1 (centres unmarked) [V enlafaxine, Venlafaxine] | 3 to 7 | 
N#Cc1ccc2[nH]cc(CCCCN3CCN(c4ccc5oc(C(N)=O)cc5c4)CC3)c2c1 [V ilazod on e, Vilazodone] | 25 | 
C[C@H](NC(C)(C)C)[C@@H](O)c1cccc(Cl)c1 [Threohydrobupropion] | 24 to 50 | Plasma Half-life, Mean [1]: 37 h
Fc1ccc([C@@H]2CCNC[C@H]2COc2ccc3c(c2)OCO3)cc1 [P aroxetine, Paroxetine] | 21 | 
NCCC(Oc1ccc(C(F)(F)F)cc1)c1ccccc1 (centres unmarked) [Norfluoxetine] |  | Plasma Half-life, Range [1, 5]: 96 to 384 h; Plasma Half-life, Mean [1]: 223 h
CN[C@H](C)Cc1ccccc1 [R(-)-methamphetamine] | 18 to 25 | 
CNCCCN1c2ccccc2CCc2ccccc21 [Desipramine] | 12 to 27 | 
N[C@@H]1C[C@H]1c1ccccc1 (racemic) [Tr a n yl c yp r o mi n e, Tranylcypromine] | 2.5 | 
CNCCCC12CCC(c3ccccc31)c1ccccc12 [Maprotiline] | 51 | 
O=c1n(CCCN2CCN(c3cccc(Cl)c3)CC2)nc2ccccn12 [Trazodone] |  | Plasma Half-life [1, 7]: 10 h
CN(C)CC(c1ccc(O)cc1)C1(O)CCCCC1 (centres unmarked) [Desven la fa xin e, Desvenlafaxine] | 11 | 
CC(CN(C)C)CN1c2ccccc2CCc2ccccc21 (centres unmarked) [Tr i mi p r a mi n e, Trimipramine] | 11 to 23 | 
